In patent US10300143B2, “Compositions for treating cancer and methods for making the same” (THE BRIGHAM AND WOMEN'S HOSPITAL, INC., priority 2012, dated 2019):
Like-named read-outs stand apart in the source and are kept apart here.

What was measured:
4T1 breast tumors = system: 4T1 breast tumors
Experimental: The 4T1 breast cancer cells (3×10^5) were implanted subcutaneously in the flanks of 4-wk-old BALB/c mice. […] PBS (100 μL) by tail-vain injection was used as a control for drug treatment. Treatment was started on day 9 postimplantation, and administered every alternate day till day 13. The tumor volumes and body weights were monitored on a daily basis. The tumor volume was calculated by using the formula, L×B^2.
(§1) The tissues were fixed in 10% formalin, paraffin-embedded, and sectioned at the Harvard Medical School Core Facility. Tumor and kidney paraffin sections were deparaffinized and stained with a standard TMR red fluorescent TUNEL kit following the manufacturer's protocol (In Situ Cell Death Detection Kit™, TMR-Red; Roche). The kidney sections were also immunolabeled for KIM1 expression. Images were obtained using a Nikon Eclipse TE2000™ fluorescence microscope equipped with red filter.
The 4T1 breast cancer cells (3×105) were implanted subcutaneously in the flanks of 4-wk-old BALB/c mice (weighing 20 g; Charles River Laboratories). The drug therapy was started on day 9. […] PBS (100 μL) administered by tail-vain injection was used as a control for drug treatment. The tumor volumes and body weights were monitored on a daily basis. The tumor volume was calculated by using the formula, L×B2, where the longest diameter was considered as L and the shortest diameter as measured using a vernier caliper as B. The animals were killed when the average tumor volume of the control exceeded 2,000 mm3 in the control group. The tumors were harvested immediately following sacrifice and stored in 10% formalin for further analysis. All animal procedures were approved by the Harvard Institutional Use and Care of Animals Committee.
as §1, with “with” for “with a”, “Roche).” for “Roche). The kidney sections were also immunolabeled for KIM1 expression.”, “TE2000” for “TE2000™”

[1] = system: Lewis lung carcinoma (LLC) cells; experiment: Cell viability assay (MTS), platinates; type: cell-based; details: 48 h
Experimental: (§2) The LLC cells, breast cancer cell line (4T1), and hepatocellular carcinoma cells (CP20) were seeded into 96-well flat bottomed plates (4×10^3 cells per well). Drugs or SACNs were added at equivalent Pt concentrations and incubated for 48 h. Viability was quantified using the Cell-Titer 96 Aqueous One Solution™ reagent. Cellular apoptosis was quantified using Annexin-V-Alexa Fluor™ 488 conjugate and propidium iodide staining followed by FACS.
(§3) The Lewis lung carcinoma (LLC) cells, breast cancer cell line (4T1), and hepatocellular carcinoma cells (CP20) were purchased from American Type Culture Collection. LLC cells and CP20 cells were cultured in DMEM and 4T1 cells were cultured in RPMI medium 1640-supplemented with 10% FBS, 50 unit/mL penicillin, and 50 unit/mL streptomycin. Trypsinized cultured LLC, 4T1, and CP20 cells were washed twice with PBS and seeded into 96-well flat-bottomed plates (4×10^3 cells per well). Free drugs and SACNs were added at appropriate concentrations (0.01, 0.1, 1, 10, 20, 50 μM Pt concentration). […] After 2 h incubation in 5% CO2 atmosphere at 37° C., the absorbance in each well was recorded at 490 nm using an Epoch (BioTek™) plate reader. Results were quantified by subtracting the blank value from each value then normalizing against the control values and results were analyzed by using Prism™ software (GraphPad). […]

[2] = system: 4T1 breast cancer cell line; experiment: Cell viability assay (MTS), platinates; type: cell-based, murine; details: 48 h
Experimental: as §2, §3

[3] = Maximum tolerated dose (20% body weight loss); type: in vivo, BALB/c mice
[4] = system: cisplatin-resistant hepatocellular carcinoma (7404-CP20) cell line; experiment: Cell viability assay (MTS), platinates; type: cell-based, human; details: 48 h
Experimental: as §2, §3

[5] = system: K-Ras^LSL/+/Pten^fl/fl ovarian cancer; experiment: In vivo K-ras^LSL/+/Pten^fl/fl ovarian cancer model, platinates; set-up: species or system mice; details: Pt dose equivalent to 3 mg/kg of cisplatin
4T1 cells = experiment: FACS analysis of apoptosis (Annexin-V/PI); type: cell-based, murine; details: 1 μM Pt, 24 h
Experimental: The LLC cells, breast cancer cell line (4T1), and hepatocellular carcinoma cells (CP20) were seeded into 96-well flat bottomed plates (4×10^3 cells per well). Drugs or SACNs were added at equivalent Pt concentrations and incubated for 48 h. Viability was quantified using the Cell-Titer 96 Aqueous One Solution™ reagent. Cellular apoptosis was quantified using Annexin-V-Alexa Fluor™ 488 conjugate and propidium iodide staining followed by FACS. […] After 24 h, the cells were washed with PBS and collected at 0° C. The cells were then treated with Annexin-V-Alexa Fluor 488™ conjugate (Molecular Probes, Invitrogen) and incubated in the dark, at room temperature, for 15 min. The cells were then washed with PBS and incubated with propidium iodide (PI) solution ([…]; Sigma) containing RNase (1 mg/mL; Sigma). The cell suspension were then transferred to FACS tubes and analyzed for Annexin-V/PI staining on a BD FACS Calibur™ instrument. Data were analyzed using a CellQuestPro™ software (BD Biosciences).

[6] = single dose, Pt equivalent to 8 mg/kg cisplatin

Row | SMILES | survival (4T1 breast tumors; [6]) | inhibitory activity (cell viability) [1] | inhibitory activity (cell viability) [2] | maximum tolerated dose (MTD) [3] [mg/kg] | tumor growth (4T1 breast tumors; multiple dose, 1 and 3 mg/kg, days 9, 11, 13) | survival (4T1 breast tumors; multiple dose, higher dose) | tumor inhibition (4T1 breast tumors; multiple dose, highest doses (3 mg/kg Pt)) | tumor inhibition (4T1 breast tumors; multiple dose, lower doses (1 mg/kg Pt)) | IC50 [1] [µM] | IC50 [2] [µM] | IC50 [4] [µM] | kidney cell death (TUNEL) [5] | tumor apoptosis (TUNEL) [5] | apoptosis and necrosis (4T1 cells)
1 | N.N.O=C([O-])C1(C(=O)[O-])CCC1.[Pt+2] [carboplatin] | only minor increase in survival over vehicle-treated controls | In neither of these cell lines did carboplatin exert any inhibitory activity at this concentration range | In neither of these cell lines did carboplatin exert any inhibitory activity at this concentration range | – | – | – | – | – | – | – | – | – | – | –
2 | N.N.[Cl][Pt][Cl] [cisplatin, cis-dichlorodiamineplatinum (II)] | only minor increase in survival over vehicle-treated controls | – | – | 9 | dose-dependent inhibition of tumor growth | increase survival | identical | greater tumor inhibition as opposed to the higher dose of carboplatin | 2.91 ± 0.015 | 4.72 ± 0.016 | 42.84 ± 0.04 | induced apoptosis of nephrons | apoptosis | more efficacious than carboplatin
